{"source": "ChEMBL document CHEMBL4000217", "about": "“Structure-activity relationship of daptomycin analogues with substitution at (2S, 3R) 3-methyl glutamic acid position” (2017)", "test_system": "Staphylococcus aureus", "test": "Antibacterial activity against Staphylococcus aureus isolate 42 […] by CLSI method", "type": "functional", "data": [{"molecule": "CCCCCCCCCC(=O)N[C@@H](Cc1c[nH]c2ccccc12)C(=O)N[C@@H](CC(N)=O)C(=O)N[C@@H](CC(=O)O)C(=O)N[C@@H]1C(=O)NCC(=O)N[C@@H](CCCN)C(=O)N[C@@H](CC(=O)O)C(=O)N[C@H](C)C(=O)N[C@@H](CC(=O)O)C(=O)NCC(=O)N[C@H](CO)C(=O)N[C@@H]([C@H](C)CC(N)=O)C(=O)N[C@@H](CC(=O)c2ccccc2N)C(=O)O[C@@H]1C", "values": [{"measurement": "MIC", "value": 32, "unit": "µg/mL"}]}, {"molecule": "CCCCCCCCCC(=O)N[C@@H](Cc1c[nH]c2ccccc12)C(=O)N[C@@H](CC(N)=O)C(=O)N[C@@H](CC(=O)O)C(=O)N[C@@H]1C(=O)NCC(=O)N[C@@H](CCCN)C(=O)N[C@@H](CC(=O)O)C(=O)N[C@H](C)C(=O)N[C@@H](CC(=O)O)C(=O)NCC(=O)N[C@H](CO)C(=O)N[C@@H](C(C)CC(=O)O)C(=O)N[C@@H](CC(=O)c2ccccc2N)C(=O)O[C@@H]1C", "note": "(single isomer, unassigned) [DAPTOMYCIN]", "values": [{"measurement": "MIC", "value": 128, "unit": "µg/mL"}]}, {"molecule": "CCCCCCCCCC(=O)N[C@@H](Cc1c[nH]c2ccccc12)C(=O)N[C@H](CC(N)=O)C(=O)N[C@@H](CC(=O)O)C(=O)N[C@@H]1C(=O)NCC(=O)N[C@@H](CCCN)C(=O)N[C@@H](CC(=O)O)C(=O)N[C@H](C)C(=O)N[C@@H](CC(=O)O)C(=O)NCC(=O)N[C@H](CO)C(=O)N[C@@H]([C@H](C)CC(=O)O)C(=O)N[C@@H](CC(=O)c2ccccc2N)C(=O)O[C@@H]1C", "values": [{"measurement": "MIC", "value": 0.5, "unit": "µg/mL"}]}, {"molecule": "CCCCCCCCCC(=O)N[C@@H](Cc1c[nH]c2ccccc12)C(=O)N[C@@H](CC(N)=O)C(=O)N[C@@H](CC(=O)O)C(=O)N[C@@H]1C(=O)NCC(=O)N[C@@H](CCCN)C(=O)N[C@@H](CC(=O)O)C(=O)N[C@H](C)C(=O)N[C@@H](CC(=O)O)C(=O)NCC(=O)N[C@H](CO)C(=O)N[C@@H]([C@H](CC)CC(=O)O)C(=O)N[C@@H](CC(=O)c2ccccc2N)C(=O)O[C@@H]1C", "values": [{"measurement": "MIC", "value": 8, "unit": "µg/mL"}]}, {"molecule": "CCCCCCCCCC(=O)N[C@@H](Cc1c[nH]c2ccccc12)C(=O)N[C@@H](CC(N)=O)C(=O)N[C@@H](CC(=O)O)C(=O)N[C@@H]1C(=O)NCC(=O)N[C@@H](CCCN)C(=O)N[C@@H](CC(=O)O)C(=O)N[C@H](C)C(=O)N[C@@H](CC(=O)O)C(=O)NCC(=O)N[C@H](CO)C(=O)N[C@@H](C(C)(C)CC(=O)O)C(=O)N[C@@H](CC(=O)c2ccccc2N)C(=O)O[C@@H]1C", "values": [{"measurement": "MIC", "value": 64, "unit": "µg/mL"}]}]}
